Publication PMC10138723, “Cytotoxic Steroidal Saponins Containing a Rare Fructosyl from the Rhizomes of Paris polyphylla var. latifolia” (International Journal of Molecular Sciences, 2023)

What was measured:
Format in all cases: cell-based
[1] = system: LN229 (human glioma cells); assay: CCK-8 cytotoxic assay, LN229; conditions: LN-229, LN229 cells, CCK-8, 24 h, read-out: IC50 ± SD, LN229
Description: (§1) U251 (human glioma cells), HeLa (human cervical cancer cells), and HepG2 (human hepatic cancer cells) were purchased from the Chinese Academy of Sciences (China), and Capan-2 (human pancreatic cancer cells) were obtained from Nanjing Cobioer Biosicences (Nanjing, China). American Type Culture Collection (ATCC) provided LN229 (human glioma cells). NHA (Gibco Human Astrocytes) and Gibco Astrocyte Medium (DMEM, N-2 Supplement, One Shot fetal bovine serum) were purchased from ThermoFisher Scientific (Waltham, MA, USA). The LN229, U251, HepG2 and HeLa cells were cultured in DMEM (Procell, Wuhan, China). The Capan-2 cells were cultured in RPMI-1640 (Procell, Wuhan, China) and NHA cells were cultured in Gibco Astrocyte Medium, supplemented with 10% FBS (Solarbio, Beijing, China) and 1% Penicillin–Streptomycin (Elabscience Biotechnology Co.,Ltd, Wuhan, China) at 37 °C with 5% CO2.
(§2) In the exponential phase of the growth, five tumor cell lines and one normal human astrocytes were plated onto 96-well plates at a concentration of 8000 cells/well for 24 h. Compounds 1–12 were prepared to various concentrations (64, 32, 16, 8, 4, 2, 1 and 0.5 µM in medium containing less than 0.1% DMSO) and incubated in 96-well plates (each concentration in four-fold wells) for 24 h. Cell viability was determined according to reported assay methods using the commercial CCK-8 kit (Elabscience Biotechnology Co., Ltd., Wuhan, China). The optical density (OD) of each well was measured with an AMR-100 microplate reader at 450 nm (Allsheng Corporation, Hangzhou, China). Cytotoxicity emerged as the value of the drug concentration at the inhibition of cell growth by 50% (IC50). The experiments were conducted for three independent replicates, and Doxorubicin was used as the positive control.

[2] = system: U251 (human glioma cells); assay: CCK-8 cytotoxic assay, U251; conditions: U-251, U251 cells, CCK-8, 24 h, read-out: IC50 ± SD, U251
Description: as §1, §2

[3] = system: Capan-2 (human pancreatic cancer cells); assay: CCK-8 cytotoxic assay, Capan-2; conditions: Capan-2 cells, CCK-8, 24 h, read-out: IC50 ± SD, Capan-2
Description: as §1, §2

[4] = system: HeLa (human cervical cancer cells); assay: CCK-8 cytotoxic assay, HeLa; conditions: HeLa cells, CCK-8, 24 h, read-out: IC50 ± SD, HeLa
Description: as §1, §2

[5] = system: HepG2 (human hepatic cancer cells); assay: CCK-8 cytotoxic assay, HepG2; conditions: HepG2 cells, CCK-8, 24 h, read-out: IC50 ± SD, HepG2
Description: as §1, §2

[6] = system: NHA (normal human astrocytes); assay: CCK-8 cytotoxic assay, NHA normal astrocytes; conditions: Astrocyte; NHA normal human astrocytes, CCK-8, 24 h; read-out: IC50 ± SD, NHA
Description: as §1, §2

[7] = system: five cancer cell lines (LN229, U251, Capan-2, HeLa, HepG2); assay: CCK-8 cytotoxic assay, summary over five cancer cell lines; conditions: Homo sapiens, range over compounds 1 and 2 and five cancer cell lines, read-out: IC50 values (range) against five cancer cell lines
Description: as §1
In the exponential phase of the growth, five tumor cell lines and one normal human astrocytes were plated onto 96-well plates at a concentration of 8000 cells/well for 24 h. […] Cell viability was determined according to reported assay methods using the commercial CCK-8 kit (Elabscience Biotechnology Co., Ltd., Wuhan, China). The optical density (OD) of each well was measured with an AMR-100 microplate reader at 450 nm (Allsheng Corporation, Hangzhou, China). […]

| Compound | IC50 [1] [µM] | IC50 [2] [µM] | IC50 [3] [µM] | IC50 [4] [µM] | IC50 [5] [µM] | IC50 [6] [µM] | IC50 [7] [µM] |
| --- | --- | --- | --- | --- | --- | --- | --- |
| Cc1c(CCC(C)COC2OC(CO)C(O)C(O)C2O)ccc2c1C1(C)CCC3C(CC=C4CC(OC5OC(CO)C(OC6OC(CO)C(O)C6O)C(O)C5OC5OC(C)C(O)C(O)C5O)CCC43C)C1C2 [Compound 8, 3-O-α-L-arabinofuranosyl-(1 → 4)-[α-L-rhamnopyranosyl (1 → 2)]-β-D-glucopyranosyl-β-D-chacotriosyl-26-O-β-D-glucopyranoside] | > 50 | > 50 | > 50 | > 50 | > 50 | > 50 | – |
| CC1CCC2(OC1)OC1CC3C4CC=C5CC(OC6OC(COC7(CO)OC(CO)C(O)C7O)C(OC7OC(CO)C(O)C7O)C(O)C6OC6OC(C)C(O)C(O)C6O)CCC5(C)C4CCC3(C)C1C2C [Compound 2, diosgenin-3-O-β-D-fructofuranosyl-(1 → 6)-[α-L-arabinofuranosyl-(1→4)]-[α-L-rhamnopyranosyl-(1→2)]-β-D-glucopyranoside] | 15.4 ± 0.47 | 15.8 ± 0.65 | 20.4 ± 1.05 | 22.3 ± 1.33 | 18.8 ± 1.25 | > 50 | 3.26 to 22.3 |
| Cc1c(CCC(C)COC2OC(CO)C(O)C(O)C2O)ccc2c1C1(C)CCC3C(CC=C4CC(OC5OC(CO)C(O)C(O)C5OC5OC(C)C(O)C(O)C5O)CCC43C)C1C2 (stereo not shown) [Compound 12, parispseudoside B] | > 50 | > 50 | > 50 | > 50 | > 50 | > 50 | – |
| C=C1C(=O)OC2CC3C4CC=C5CC(OC6OC(CO)C(OC7OC(CO)C(O)C7O)C(O)C6OC6OC(C)C(O)C(O)C6O)CCC5(C)C4CCC3(C)C12 (stereo not shown) [Compound 3] | > 50 | > 50 | > 50 | > 50 | > 50 | > 50 | – |
| CC(=O)C1=CC[C@H]2[C@@H]3CC=C4C[C@@H](O[C@@H]5O[C@H](CO)[C@@H](O[C@@H]6O[C@@H](C)[C@H](O)[C@@H](O)[C@H]6O)[C@H](O)[C@H]5O[C@@H]5O[C@@H](C)[C@H](O)[C@@H](O)[C@H]5O)CC[C@]4(C)[C@H]3CC[C@]12C [Compound 11, hypoglaucin H] | > 50 | > 50 | > 50 | > 50 | > 50 | > 50 | – |
| Cc1c(CCC(C)COC2OC(CO)C(O)C(O)C2O)ccc2c1C1(C)CCC3C(CC=C4CC(OC5OC(CO)C(OC6OC(C)C(O)C(O)C6O)C(O)C5OC5OC(C)C(O)C(O)C5O)CCC43C)C1C2 (stereo not shown) [Compound 9, aethioside A] | > 50 | > 50 | > 50 | > 50 | > 50 | > 50 | – |
